The target in test [1] is T1, Calf spleen PNP (Bos taurus, UniProt P55859).
T1 construct: Calf spleen PNP is used as the enzyme source; from tissue; host or cells: calf spleen
T1 sequence (P55859 1-289): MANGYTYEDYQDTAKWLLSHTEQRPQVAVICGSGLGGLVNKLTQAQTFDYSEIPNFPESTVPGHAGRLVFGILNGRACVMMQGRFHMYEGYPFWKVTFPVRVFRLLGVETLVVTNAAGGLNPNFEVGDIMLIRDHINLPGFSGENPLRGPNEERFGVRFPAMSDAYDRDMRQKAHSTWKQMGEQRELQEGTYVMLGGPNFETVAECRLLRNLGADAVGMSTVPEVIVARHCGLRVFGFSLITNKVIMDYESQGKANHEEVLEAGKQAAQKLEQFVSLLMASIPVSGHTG
The experiment in a line: PNP inhibition in vitro, colorimetric enzymic determination of inorganic phosphate (PNP and xanthine oxidase, substrate inosine). The format is biochemical. The conditions noted are these: 1 mM phosphate concentration. How it is done:
PNP inhibition can also be determined in vitro as follows: An enzymic method for the determination of inorganic phosphate (see Chem. Pharm. Bull., 1981, 29:1451-5), based on the principle of forming hydrogen peroxide with purine nucleoside phosphorylase (PNP) and xanthine oxidase, is used to colorimetrically measure the degree of linkage between enzyme and substrate (inosine). Calf spleen PNP is used as the enzyme source. The IC50 values for the compounds studied are determined graphically at two phosphate concentrations (1 and 50 mM) from a plot of percent inhibition versus compound concentration.

Test [2] has as its system Human CCRF-CEM cells. Nature of the test: potentiation of the cell growth inhibitory activity (cytotoxicity) of 2'-deoxyguanosine, CCRF-CEM cell assay. The conditions noted are these: d-Guo 10 μM, increase in cell number between 0 and 72 hours. The format is cell-based. How it is done: The selective suppression of spontaneous T-cell proliferation in vitro is measured by the potentiation of the cell growth inhibitory activity (cytotoxicity) of 2'-deoxyguanosine (d-Guo) by the compounds of the invention, determined as follows: Human CCRF-CEM cells are grown in RPMI-1640 medium. To suspension cultures of these cells, d-Guo at a fixed concentration (10 μM) and the candidate PNP inhibitor at varied concentrations are added and the number of cells are determined in a Coulter counter 24, 48, and 72 hours thereafter. […] This method is similar to that previously used to determine the effectiveness of PNP inhibitors on potentiation of the toxicity of d-Guo. [See D. A. Shewach et al., Cancer Res., 46, 519 (1986); J. C. Sircar et al., Agents and Actions, 21, 253 (1987), also Methods in Pharmacology, D. M. Paten, ed. 1985, pp. 147-162].

Test [3] has as its system PNP. Nature of the test: PNP inhibition in vivo: increased plasma level of inosine in mice. The conditions noted are these: 10 mg/Kg p.o. How it is done: Briefly, mice are treated orally with the PNP inhibitor suspended in fortified cornstarch (3% cornstarch suspension in water with 0.33% Tween 80 and 5% PEG 400) at a final volume of 10 ml/kg. One or more hours after a single oral dose of compound, the mice are bled by cardiac puncture into 25 U/ml heparin to obtain plasma. The samples are analyzed for both inosine and drug levels by a gradient reverse-phase high performance liquid chromatography (HPLC) method (see Anal Chem, 1977, 49:2237-41). Quantitation is performed using an internal standard method with 2',3'-dideoxyinosine (DDI) as the internal standard.

In test [4] the test system is collagen II induced arthritis. Nature of the test: collagen II induced arthritis in mice model. The format is in vivo, mice (DBA/1LacJ). The conditions noted are these: 20 mg/Kg/day, oral. How it is done: The antiarthritic activity can be determined in the collagen II induced arthritis in mice model. DBA/1LacJ female mice, 6-8 weeks old, are immunized with 100 μg of chicken type II collagen emulsified in Freund's complete adjuvant (FCA) by injecting at the base of the tail on day 0. On day 17 after collagen injection, the immune response to type II collagen is boosted with a subcutaneous injection of 200 μg LPS solubilized in PBS. Paws are examined on days 17, 21, 24, 28, 31, 35, and 42 and scored for the symptoms of arthritis based on criteria such as inflammation, swelling and ankylosis. Compounds are suspended in corn starch vehicle and administered orally to mice once daily beginning on day 1 and continuing through day 42.

In test [5] the test system is transplant rejection. Nature of the test: mouse tail skin transplant rejection model. In kind it is in vivo, mouse (C57BL/10-SnJ and B10.BR/SgSnJ). From the text: Protection against transplant rejection can be determined in a mouse tail skin transplantation procedure.
Mice are anesthetized with tribromoethanol i.p. injection according to the method of Papaioannou and Fox (Lab. Animal Science 1993;43:189-92). The mouse tail skin transplant rejection model is a modification of that described by Baily and Usama, (Transpl. Bull. 1960;7:424-5). Four skin grafts per mouse are exchanged between strains [C57BL/10-SnJ (H-2K^b) and B10.BR/SgSnJ (H-2K^k)] at surgery (d0). Fitted skin grafts are made with a scalpel, and tail graft sites are protected with tubing for 2 days following surgery. Mouse tails are evaluated at day 7 for missing grafts. Only those graft sites that have patent grafts at day 7 are evaluated at later scoring intervals. Grafts are scored numerically for signs of rejection at ~weekly scoring intervals starting day 14. Dose-group mean graft scores are compared statistically.

As usually defined, the pIC50 is the negative decadic logarithm of the IC50, by convention in mol/L.

pIC50: −log10 of the molar value.

Take `Nc1nc2c([C@@H](CO)c3ccccc3)c[nH]c2c(=O)[nH]1` [3(f), 2-Amino-7-(2(S)-hydroxy-1-phenylethyl)-3,5-dihydro-4H-pyrrolo[3,2-d]-pyrimidin-4-one]: the negative logarithm of the IC50 (pIC50) was around 8.00 in test [1] and around 7.00 in test [2]. For the same molecule, in test [3], the “increase in the plasma level of inosine” value is on record as “significant increase”.
Turning to `Nc1nc2c([C@@H](CO)c3ccccc3F)c[nH]c2c(=O)[nH]1` [Example 1, 2-amino-7-[1-(2-flourophenyl)-2(R)-hydroxyethyl]-3,5-dihydro-4H-pyrrolo[3,2-d]pyrimidin-4-one], the pIC50 in test [1] was around 8.00; in test [2], around 7.12. In test [3], the “increase in the plasma level of inosine” value was “significant increase”. In addition, in test [4], the antiarthritic activity entry is recorded as “effective”. Moreover, the “protection against transplant rejection” value in test [5] (50 mg/Kg/day, mouse) is reported as “effective in protecting against transplant rejection”. Moreover, the “effect of combination with cyclosporin in the transplant rejection model” value in test [5] (combination of a compound of the invention, e.g. of example 1, and cyclosporin) is reported as “superior to either cyclosporin or the PNP inhibitor alone”.
